From patent US12239620B2, “Methods to decrease triglyceride synthesis in the liver” (MediciNova, Inc., priority 2021, dated 2025)

Legend:
Type in all cases: cell-based, human
HepG2 cells = assay: Intracellular triglyceride level in HepG2 cells after 48 hours incubation; settings: for increase in TG synthesis compared to vehicle: 10 μM ARA, 1 μM T1317
Description: FIG. 1 depicts the measurement of intracellular triglyceride level in HepG2 cells after 48 hours incubation with one or more selected from arachidonic acid, T0901317, and MN-001. Y-axis: Δ intracellular triglycerides (μg/mg/protein). HepG2 cells (derived from human hepatocellular carcinoma samples) were incubated with one or more selected from 10 μM arachidonic acid (ARA), 1 μM LXR agonist T0901317 (“T1317”), and 10 μM MN-001 for 48 hours. T1317 stimulates LXR-SREBP-1c ChREPB signal, increases triglyceride (TG) synthesis in liver and exacerbates fatty liver. The intracellular triglyceride level was measured after the treatment (FIG. 1).

CD36 = CD36 mRNA expression in HepG2 cells by qPCR; settings: 48 hours
From the text: FIG. 2 depicts the measurement of CD36 mRNA expression levels from HepG2 cells after treatment with one or more selected from arachidonic acid, T0901317, and MN-001. Y-axis: relative mRNA expression (arbitrary units) compared to a control.
(§1) The effect of MN-001 on the mRNA expression of molecules related to TG metabolism: (1) fatty acid translocase/CD36, which is involved in the uptake of ARA into hepatocytes in the liver, and (2) ABCG1, which plays a role in controlling tissue lipid levels by mediating transfer of cellular cholesterol to HDL, were also investigated by measuring extracted RNA from HepG2 cells and using real-time PCR. To this end, RNA was extracted from HepG2 cells (after treatment with one or more selected from 10 μM arachidonic acid (ARA), 1 μM T1317, and 10 μM MN-001 for 48 hours) and converted to cDNA.
After conversion to cDNA, the CD36 mRNA expression levels were measured by qPCR (FIG. 2). […] Saturated fatty acids (e.g., palmitic acid, stearic acid) and fructose induce adipogenic pathways and promote fat accumulation by increasing CD36 expression and modulating ChREBP, which regulates lipogenesis.

ABCG1 = ABCG1 mRNA expression in HepG2 cells by qPCR; settings: 48 hours, 10 μM MN-001, 10 μM ARA
From the text: FIG. 3 depicts the measurement of ABCG1 mRNA expression levels from HepG2 cells after treatment with one or more selected from arachidonic acid, T0901317, and MN-001. Y-axis: relative mRNA expression (arbitrary units) compared to a control.
as §1
In addition, the ABCG1 mRNA expression levels were also measured by qPCR (FIG. 3). ABCG1 is known to be highly expressed in lipid-loaded macrophages and mediates cholesterol efflux to HDL. ABCG1 deficiency leads to profound intracellular cholesterol accumulation in macrophages and hepatocytes.

[1] = 10 μM MN-001 added to 10 μM ARA

| Compound | increase in TG synthesis compared to vehicle (HepG2 cells) [fold] | increase of CD36 expression compared to control (CD36; 10 μM ARA) [fold] | suppression of the increase in TG synthesis by T1317 (HepG2 cells; 10 μM MN-001 added to 1 μM T1317) [fold] | suppression of the increase in TG synthesis by a combination of T1317 and ARA (HepG2 cells; 10 μM MN-001 added to 1 μM T1317 and 10 μM ARA) [fold] | suppression of the increase in TG synthesis by ARA (HepG2 cells; [1]) [fold] | upregulation of ABCG1 expression compared to control (ABCG1) [fold] | lowering of CD36 expression (CD36; 10 μM MN-001, in the absence of ARA) [%] | lowering of CD36 expression (CD36; 10 μM MN-001, in the presence of ARA (10 μM)) [%] | suppression of CD36 expression compared to ARA alone (CD36; [1]) [fold] | downregulation of CD36 expression compared to control (CD36; 10 μM MN-001 alone) [fold] |
| --- | --- | --- | --- | --- | --- | --- | --- | --- | --- | --- |
| CCCCC/C=C\C/C=C\C/C=C\C/C=C\CCCC(=O)O [ARA, arachidonic acid, reference compound] | 15.3 | 1.8 | – | – | – | – | – | – | – | – |
| O=S(=O)(c1ccccc1)N(CC(F)(F)F)c1ccc(C(O)(C(F)(F)F)C(F)(F)F)cc1 [T1317, reference compound] | 3.8 | – | – | – | – | – | – | – | – | – |
| CCCc1c(SCCCOc2ccc(C(C)=O)c(OCCCC(=O)O)c2CCC)ccc(C(C)=O)c1O [MN-001] | – | – | 1.7 | 3.7 | 3.7 | 17 | 39 | 43 | 0.6 | 0.6 |
